Measured values: US20250340593A1, “METHOD AND COMPOSITION FOR TREATING NEURODEGENERATIVE DISORDER” (priority 2022, published 2025)
Residues, ends and D or L forms follow the SMILES beside them.

Assays:
[1] = biological target: T1, Aβ42 oligomers (Aβo) (Homo sapiens, UniProt P05067); test: Indirect ELISA, binding of coated peptide to biotinylated Aβ42 oligomers; conditions: peptide coated at 5 μM
T1 construct: purchased Bachem; host or cells: chemical synthesis
Description: The binding of the CP or BP to synthetic biotinylated Aβ42 oligomers (Aβo) or AB40 monomers (Aβm) was determined by indirect ELISA in which the CP or BP were used as the capture antigens and the biotin tag of the biotinylated Aβ peptides for the detection. 96-well clear polystyrene microplate (BioTechne DY990) were coated overnight at 4° C. with 5 μM of the CP or BP in PBS, pH 7.4. After immobilization, the plate was washed three times with PBS 0.05% Tween 20 and various concentrations of biotinylated Aβ peptides were added in triplicate from 0.1 μg.mL-1 to 10 μg.mL-1 (21 nM to 2.1 μM for Aβo (42), 22 nM to 2.2 μM for Aβm (40) and incubated for 2 h at RT. After additional washes with PBS 0.05% Tween 20, HRP-conjugated streptavidin (1/40) was added for 20 min at RT, followed by a washing step and an incubation in substrate solution containing 3,3′,5,5′-Tetramethylbenzidine (TMB) and H2O2. The reaction was stopped by H2SO4. Absorbance was successively measured at 450 and 540 nm with a TECAN microplate reader and optical density values at 540 nm were subtracted from the ones at 450 nm to correct for optical imperfections of the plate. Unspecific Aβ binding to the microplate was determined using non-coated wells.

[2] = biological target: T2, soluble Aβ species (monomers, LMW and HMW Aβo) (Homo sapiens, UniProt P05067); test: Western blotting of soluble Aβ species (6E10 antibody); assay type: biochemical
T2 construct: purchased Bachem; host or cells: chemical synthesis
T2 sequence (P05067 672-713 limits assumed): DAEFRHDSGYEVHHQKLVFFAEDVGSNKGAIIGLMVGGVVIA
Description: Aβ preparations (1 μg) were subjected to immunoblotting analysis and separated on 4-12% gradient SDS-PAGE gels, prior to being transferred on nitrocellulose membranes. After a 45 minutes blocking step in Tris-buffered saline, 0.1% Tween, pH 7.6, 5% milk, membranes were immunoblotted overnight at 4° C. with the 6E10 anti-Ab antibody diluted in Tris-buffered saline, 0.1% Tween, pH 7.6, with 2% milk. Horseradish peroxidase (HRP)-conjugated secondary anti-mouse antibody was next applied for 1 h30 at room temperature. Proteins were visualized with an ECL detection system and band intensities quantified using a densitometric analysis with Image J software.

[3] = biological target: T3, Aβ preparation (30 μM) (Homo sapiens, UniProt P05067); test: Transmission electron microscopy of Aβ aggregates; conditions: for morphology of Aβ aggregates by TEM: Aβ 30 μM with equimolar peptide, 24 h
T3 construct: purchased Bachem; host or cells: chemical synthesis
T3 sequence (P05067 672-713 limits assumed): as above
Description: Prior to imaging, 10 μL of an Aβ preparation (30 μM) aggregated for 24 h at 37° C. in the presence or absence of equimolar concentration of the CP or BP were deposited onto Formvar-C coated mesh nickel grids. After a 10 min incubation step at RT, grids were rinsed with sterile dH20. Samples were subsequently stained using 5% uranyl acetate for 1 minute in the dark to increase contrast and were allowed to air dry for 2 minutes. Finally, they were visualized with a JEM 1400 Transmission Electron Microscope (Jcol Tokyo, Japan), operating at 120 kV, initially imaged at low magnification (20,000X), and thereafter at 120,000X using a Gatan Orius 1000 digital micrograph software.

[4] = Aβ aggregated with peptide for 24 hours, compared to the two other conditions

T1 sequence (P05067 672-713 limits assumed): as above

| Compound | Kd ([1]; ELISA titration binding curves) [nM] | fraction of LMW Aβo ([2]; Aβ aggregated with peptide for 2 hours, compared to Aβ alone and Aβ and CP) | amount of HMW Aβo ([2]; Aβ aggregated with peptide for 2 hours, compared to the Aβ alone condition) | LMW Aβo and Aβ monomers [2, 4] | fraction of HMW Aβo [2, 4] | morphology of Aβ aggregates by TEM [3] | self-assembly structures of peptide alone by TEM [3] | binding to Aβo ([1]; ELISA) |
| --- | --- | --- | --- | --- | --- | --- | --- | --- |
| CC(C)[C@H](NC(=O)[C@H](Cc1ccc(O)cc1)NC(=O)[C@@H](NC(=O)[C@H](CO)NC(=O)[C@H](Cc1c[nH]c2ccccc12)NC(=O)[C@H](CO)NC(=O)[C@H](CCCCN)NC(=O)[C@H](Cc1ccc(O)cc1)NC(=O)[C@H](CCCNC(=N)N)NC(=O)[C@H](CO)NC(=O)[C@H](CCCCN)NC(=O)[C@H](CCCCN)NC(=O)[C@H](CCCNC(=N)N)NC(=O)[C@@H](N)CCCCN)C(C)C)C(=O)NCC(=O)O [BP, KRKKSRYKSWSVYVG] (H-KRKKSRYKSWSVYVG-OH; N-terminus and C-terminus assumed) | 12 | significantly increased | significant decrease | increase | significant decrease | mainly non-fibrillar and amorphous in shape | does not induce any 3-dimensional self-assembly structures |  |
| NDYKDDDDKGAAA [CP, reference compound] |  |  |  |  |  | characteristic twisted morphology | does not induce any 3-dimensional self-assembly structures | fails to bind |
